From US10208043B2, “Methods for inhibiting fascin” (Novita Pharmaceuticals, Inc., priority 2012, dated 2019)

Tests used:
fascin = fascin (Homo sapiens (Human), UniProt Q16658); test: High throughput fascin inhibition assay (actin bundling, F-actin imaging); type: biochemical
Method: A high throughput assay was developed to screen for fascin specific inhibitors. Purified polymerized F-actin with or without fascin were mixed and incubated to allow actin bundle formation. F-actin polymers were then bound to the poly-D-lysine coated plates. […] Four images were taken from each well and the average fiber length was analyzed for each tested compound.
Recombinant human fascin 1 was expressed as a GST fusion protein in BL21 Escherichia coli. One liter of 2YT medium with ampicillin was inoculated overnight with 3 mL of BL21/DE3 culture transformed with pGEX4T-fascin 1 plasmid and grown at 37° C. until attenuance at 600 nm (D600) reached about 0.8. The culture was then transferred to 18° C. and induced by the addition of 0.1 mM isopropyl β-d-thiogalactoside (IPTG) for 12 h. Bacteria were harvested by centrifugation at 5,000 r.p.m. for 10 min. The pellets were suspended in 30 mL of PBS supplemented with 0.2 mM PMSF, 1 mM DTT, 1% (v/v) Triton X-100 and 1 mM EDTA. After sonication, the suspension was centrifuged at 15,000 r.p.m. for 30 min to remove the cell debris. The supernatant was then incubated for 2 h with 4 mL of glutathione beads (Sigma) at 4° C. After extensive washing with PBS, the beads were resuspended in 10 mL of thrombin cleavage buffer (20 mM Tris-HCl pH 8.0, 150 mM NaCl, 2 mM CaCl2, 1 mM DTT). Fascin was released from the beads by incubation overnight with 40-100 U of thrombin at 4° C. After centrifugation, 0.2 mM PMSF was added to the supernatant to inactivate the remnant thrombin activity. The fascin protein was further concentrated with a Centricon® (Boca Raton, Fla.) filter to about 50 mg/mL.
About 150,000 compounds were screened. […] Purified fascin protein (15 μL of 0.5 μM) in buffer (100 mM KCl, 20 mM Tris/HCl, pH 7.5, 2 mM MgCl2) was added into each well of a clear 384-well flat-bottom plate (Corning) using Thermo Multidrop Combi (Fisher). Compound ([…]) solutions (5 mM stock) from various chemical libraries were pin transferred from stock 384-well plates into the 384-well assay plates and incubated for 30 min. Then 15 μL of 0.5 μM polymerized actin (in 100 mM KCl, 20 mM Tris/HCl, pH 7.5, 2 mM MgCl2, 1 mM DTT, 1 mM ATP) (Cytoskeleton Inc.) was added, resulting in 30 μM final concentration for chemical compounds. […] Mixed solution (25 μL) was then transferred to one well in a black 384-well plate coated with poly-D-lysine, and stained actin bundles or F-actin would stick onto the poly-D-lysine plates. After the plates were thoroughly washed with 1×PBS for 3 times, the plate was imaged using an ImageXpress Micro High Content Screening System (Molecular devices). The images were processed and analyzed using MetaMorph software. The raw image data for each well was background-corrected by subtraction of the median intensities across all wells on the plate. The background-corrected data was used to compute the bundle length for each well. The negative control wells were employed for quality control: multiple DMSO-only control wells (16 wells/plate) were present on each assay plate.

[1] = system: MDA-MB-231 breast tumor cells; test: Boyden-chamber cell migration assay, MDA-MB-231; type: cell-based; conditions: Homo sapiens
Method: (§1) Since fascin is critical for tumor cell migration, inhibitors of fascin should block tumor cell migration. Representative compounds were selected from the above-identified fascin inhibitors to test their abilities on inhibition of tumor cell migration (See Table 2). […] The cell lines used are listed below.
(§2) Exemplifying procedure: MDA-MB-231 cells (5×10^4) or 4T1 Cells (1×10^5) suspended in 100 μL starvation medium were added to the upper chamber of an insert (6.5 mm diameter, 8 μm pore size; Becton Dickson), and the insert was placed in a 24-well plate containing 700 μL starvation medium with or without 10% FBS. […] Migration assays were performed for 6 h and cells were fixed with 3.7% formaldehyde. Cells were stained with crystal violet staining solution, and cells on the upper side of the insert were removed with a cotton swab. Three randomly selected fields (×10 objectives) on the lower side of the insert were photographed, and the migrated cells were counted. Migration was expressed as average number of migrated cells in a field.

[2] = system: DU145 prostate tumor cells; test: Boyden-chamber cell migration assay, DU145; type: cell-based; conditions: Homo sapiens, DU-145
Method: (§3) Since fascin is critical for tumor cell migration, inhibitors of fascin should block tumor cell migration. Representative compounds were selected from the above-identified fascin inhibitors to test their abilities on inhibition of tumor cell migration (See Table 2). […] Therefore, tumor cells with fascin expression are likely sensitive to these fascin inhibitors. The cell lines used are listed below.
(§4) Exemplifying procedure: MDA-MB-231 cells (5×10^4) or 4T1 Cells (1×10^5) suspended in 100 μL starvation medium were added to the upper chamber of an insert (6.5 mm diameter, 8 μm pore size; Becton Dickson), and the insert was placed in a 24-well plate containing 700 μL starvation medium with or without 10% FBS. When used, inhibitors were added to the lower chamber. Migration assays were performed for 6 h and cells were fixed with 3.7% formaldehyde. Cells were stained with crystal violet staining solution, and cells on the upper side of the insert were removed with a cotton swab. Three randomly selected fields (×10 objectives) on the lower side of the insert were photographed, and the migrated cells were counted. Migration was expressed as average number of migrated cells in a field.

[3] = system: PC-3 prostate tumor cells; test: Boyden-chamber cell migration assay, PC-3; type: cell-based
Method: as §3, §4

4T1 breast tumor cells [4] = test: Boyden-chamber cell migration assay, 4T1; type: cell-based
Method: as §1, §2

4T1 breast tumor cells [5] = test: Tumor metastasis in mouse models (lung metastasis, 6-thioguanine clonogenic assay); type: in vivo, Balb/c mice; conditions: 4T1 cells in mammary fat-pad, n=5, P<0.01
Method: Lung metastasis was measured by the 6-thioguanine clonogenic assay. […] Results are mean±SD (n=5). *, P<0.01.
Tumor cell migration is essential for tumor metastasis. […] Tumor cells (4T1 breast tumor cells) were injected into the mammary fat-pad of mice. The metastasis of these breast tumor cells from the mammary gland to the lung was monitored by the clonogenic assay.
Balb/c mice were purchased from Charles River. All animal procedures were approved by the Animal Care and Use Committees of the Weill Cornell Medical College and performed in accordance with institutional polices. For xenograft tumor metastasis studies, 5×10^5 4T1 cells were suspended in 100 μL PBS and injected subcutaneously into the mammary glands of 6-8 week old female Balb/c mice. Tumor incidence was monitored for 21 days after injection. Tumor size was measured three times a week, and the volume was calculated using the formula length×width^2×0.5. Compound treatment was initiated 7 days after tumor implantation; animals were administered daily with indicated dose for 2 weeks. On day 28, the mice were sacrificed. Numbers of metastatic 4T1 cells in lungs were determined by the clonogenic assay. […] Data are expressed as mean±S.D. and analyzed by Student's t test with significance defined as p<0.05.

LLC lung tumor cells = test: Boyden-chamber cell migration assay, LLC; type: cell-based
Method: as §3, §4

[6] = Actin + Fascin + compound at 30 μM

With `O=[N+]([O-])c1ccc(Cl)c(S(=O)(=O)Nc2nc3ccc(Cl)cc3s2)c1` [Compound 3, 2-chloro-N-(6-chlorobenzo[d]thiazol-2-yl)-5-nitrobenzenesulfonamide] the IC50 (fascin) was 652 nM, the fiber growth (fascin; 30 μM) was “inhibited fiber growth” and the Average fiber length (fascin; [6]) was 0.39 arbitrary unit. For the same compound, the Average fiber thickness (fascin; [6]) was 0.35 arbitrary unit, the IC50 [1] was 25 µM and the IC50 [2] was 25 µM. For the same compound, the IC50 [3] was 25 µM, the IC50 (4T1 breast tumor cells [4]) was 20 µM and the “tumor metastasis from mammary gland to lung” value (4T1 breast tumor cells [5]; 8 mg/kg daily for 2 weeks) was “decreased the tumor metastasis”. For the same compound, the IC50 (LLC lung tumor cells) was 25 µM.
For `COc1ccc(S(=O)(=O)Nc2cc(Sc3nc[nH]n3)c(O)c3ccccc23)cc1` [Compound 10, N-(3-(1H-1,2,4-triazol-3-ylthio)-4-hydroxynaphthalen-1-yl)-4-methoxybenzenesulfonamide], the IC50 (fascin) was 807 nM and the “tumor metastasis from mammary gland to lung” value (4T1 breast tumor cells [5]; 30 mg/kg daily for 2 weeks) was “decreased the tumor metastasis”.
Work on `C/N=c1/nc(-c2ccccc2)n(-c2ccccc2)s1` [Compound 4, (Z)-N-(2,3-diphenyl-1,2,4-thiadiazol-5(2H)-ylidene)methanamine] yielded an IC50 (fascin) of 500 nM, an IC50 [1] of 30 µM and an IC50 (4T1 breast tumor cells [4]) of 50 µM.
